According to patent US20130338152A1, “FLUOROPHENYL BICYCLIC HETEROARYL COMPOUNDS” (IRM LLC, priority 2011, published 2013):

Target: IGF1R (Homo sapiens, UniProt P08069)
Assay: Cellular IGF-1R assay: inhibition of IGF1R phosphorylation in Hek293 cells, capture ELISA (MSD)
Format: cell-based
Set-up: expressed in transfected cells; host or cells: Hek293 (Hek293-IGF1R)
Settings: IGF-triggered receptor phosphorylation
Experimental: IVa. Cellular IGF-1R and InsR Assays
Compound-mediated inhibition of IGF1R and INSR phosphorylation in Hek293 cells transduced with the corresponding receptors is assessed in a capture ELISA format using the MSD (Meso Scale Discovery) platform. Briefly, 30′000 cells washed and diluted in starvation medium (DMEM high glucose supplemented with 0.1% BSA) are seeded in 90 μL per well into 96-well plates pre-coated with poly-D-lysine (0.1 mg/mL in PBS/O). After 24 h incubation at 37° C. and 5% CO2, dose-response effects are determined with 3-fold serial compound dilutions, starting at 10 μM. The final vehicle concentration is 0.1% DMSO in all wells. Following pre-incubation with compounds for 1 h, receptor phosphorylation is triggered by a 10 min exposure to 1.0 ng/μL IGF for Hek293-IGF1R cells, and 5.0 ng/μL insulin for Hek293-InsR cells. Cell lysis is achieved by addition of 80 μL MSD lysis buffer per aspirated well, incubation on ice for 20 min, and a freeze-thaw cycle. Target phosphorylation is then assessed by transferring volumes corresponding to approx. 6 μg Hek293-IGF1R or 0.6 μg Hek293-InsR lysates to MSD assay plates pre-coated with total-IGF1R or total-InsR Abs, respectively. […] Immune complexes are detected by a SULFO-Tag™-coupled anti-rabbit IgG antibody in the presence of 150 μL MSD read-buffer. Light emission at 620 nm triggered by application of electric current is recorded on a MSD Sectorlmager 6000. Acquired raw data (mean Ru-ECL units) are processed in an Excel analysis template. The plate blank (MSD lysis buffer) is subtracted from all data points. The effect of a particular test compound concentration on receptor phosphorylation is expressed relative to the window defined by ligand-stimulated vs unstimulated control cells (set as 100%). IC50 values [nM] are determined using 4-parametric curve-fitting (XLfit software, V4.3.2).

Sequence of IGF1R (P08069 31-1367): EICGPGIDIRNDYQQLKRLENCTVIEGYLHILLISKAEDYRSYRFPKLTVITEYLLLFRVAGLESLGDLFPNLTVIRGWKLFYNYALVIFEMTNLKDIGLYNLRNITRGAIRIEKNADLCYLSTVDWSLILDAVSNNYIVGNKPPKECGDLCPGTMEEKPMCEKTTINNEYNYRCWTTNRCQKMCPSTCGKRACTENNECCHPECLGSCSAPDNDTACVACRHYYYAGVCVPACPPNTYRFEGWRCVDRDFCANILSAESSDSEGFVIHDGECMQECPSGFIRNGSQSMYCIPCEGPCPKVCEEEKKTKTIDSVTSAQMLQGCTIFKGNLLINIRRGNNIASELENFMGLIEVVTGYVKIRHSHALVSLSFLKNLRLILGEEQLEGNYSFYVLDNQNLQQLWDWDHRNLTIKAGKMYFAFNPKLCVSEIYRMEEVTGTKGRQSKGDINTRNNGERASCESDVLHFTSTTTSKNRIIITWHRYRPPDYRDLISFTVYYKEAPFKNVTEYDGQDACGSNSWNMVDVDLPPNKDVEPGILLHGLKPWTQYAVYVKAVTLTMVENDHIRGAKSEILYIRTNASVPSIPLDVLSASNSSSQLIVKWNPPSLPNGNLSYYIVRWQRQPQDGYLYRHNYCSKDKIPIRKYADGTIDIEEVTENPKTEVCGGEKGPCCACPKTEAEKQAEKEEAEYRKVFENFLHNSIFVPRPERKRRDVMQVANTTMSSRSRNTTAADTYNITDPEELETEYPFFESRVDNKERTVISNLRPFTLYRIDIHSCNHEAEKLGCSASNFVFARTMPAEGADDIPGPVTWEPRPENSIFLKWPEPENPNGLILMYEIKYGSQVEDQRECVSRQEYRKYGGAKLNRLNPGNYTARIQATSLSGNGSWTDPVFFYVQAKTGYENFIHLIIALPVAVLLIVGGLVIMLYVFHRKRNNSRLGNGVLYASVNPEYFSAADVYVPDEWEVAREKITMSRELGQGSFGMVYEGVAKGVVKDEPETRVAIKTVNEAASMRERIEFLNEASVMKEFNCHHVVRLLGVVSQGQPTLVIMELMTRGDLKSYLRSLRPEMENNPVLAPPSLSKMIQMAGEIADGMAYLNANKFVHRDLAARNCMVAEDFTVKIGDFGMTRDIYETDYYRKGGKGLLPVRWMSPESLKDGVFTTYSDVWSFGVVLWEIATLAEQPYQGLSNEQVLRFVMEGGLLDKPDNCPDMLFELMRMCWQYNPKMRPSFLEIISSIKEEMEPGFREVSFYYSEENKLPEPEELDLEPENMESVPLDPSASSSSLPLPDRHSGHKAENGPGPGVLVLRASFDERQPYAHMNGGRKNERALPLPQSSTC

IC50 [nM] | SMILES
19 | Nc1ncnc2c1c(-c1cc(OCC3CCCO3)ccc1F)cn2[C@H]1C[C@@H](CN2CCS(=O)(=O)CC2)C1 (mixture of isomers) [Example 43, (±)-7-[cis-3-(1,1-Dioxo-1-thiomorpholin-4-ylmethyl)-cyclobutyl]-5-[2-fluoro-5-(tetrahydro-furan-2-ylmethoxy)-phenyl]-7H-pyrrolo[2,3-d]pyrimidin-4-ylamine]
95 | CC(=O)NC[C@H]1C[C@@H](n2cc(-c3cc(OCC4CCCO4)ccc3F)c3c(N)ncnc32)C1 (mixture of isomers) [Example 56, (±)—N-(3-cis-{4-Amino-5-[2-fluoro-5-(tetrahydro-furan-2-ylmethoxy)-phenyl]-pyrrolo[2,3-d]pyrimidin-7-yl}-cyclobutylmethyl)-acetamide]
452 | Nc1ncnc2c1c(-c1cccc(OCC3CCO3)c1F)cn2[C@H]1C[C@@H](N2CC[S+]([O-])CC2)C1 (relative stereo) [Example 23, 5-[2-Fluoro-3-(oxetan-2-ylmethoxy)-phenyl]-7-[cis-3-(1-oxo-thiomorpholin-4-yl)-cyclobutyl]-7H-pyrrolo[2,3-d]pyrimidin-4-ylamine]
368 | Nc1ncnc2c1c(-c1cccc(OCC3CCO3)c1F)cn2[C@H]1C[C@@H](CN2CC[S+]([O-])CC2)C1 (relative stereo) [Example 24, 5-[2-Fluoro-3-(oxetan-2-ylmethoxy)-phenyl]-7-[cis-3-(1-oxo-thiomorpholin-4-ylmethyl)-cyclobutyl]-7H-pyrrolo[2,3-d]pyrimidin-4-ylamine]
18 | Nc1ncnc2c1c(-c1ccc(F)c(OCC34CCC(CC3)O4)c1)cn2[C@H]1C[C@@H](CN2CCS(=O)(=O)CC2)C1 (relative stereo) [Example 44, 7-[cis-3-(1,1-Dioxo-1-thiomorpholin-4-ylmethyl)-cyclobutyl]-5-[4-fluoro-3-(7-oxa-bicyclo[2.2.1]hept-1-ylmethoxy)-phenyl]-7H-pyrrolo[2,3-d]pyrimidin-4-ylamine]
110 | CN1CCN(C[C@H]2C[C@@H](n3cc(-c4ccc(F)c(OCC56CCC(CC5)O6)c4)c4c(N)ncnc43)C2)CC1=O (relative stereo) [Example 51, 4-(cis-3-{4-Amino-5-[4-fluoro-3-(7-oxa-bicyclo[2.2.1]hept-1-ylmethoxy)-phenyl]-pyrrolo[2,3-d]pyrimidin-7-yl}-cyclobutylmethyl)-1-methyl-piperazin-2-one]
215 | Nc1ncnc2c1c(-c1cc(OC[C@@H]3CCCO3)ccc1F)cn2C1CC2(CNC(=O)O2)C1 (single isomer, unassigned) [Example 21]
198 | Nc1ncnc2c1c(-c1cc(OC[C@@H]3CCCO3)ccc1F)cn2C1CC(CN2CCS(=O)(=O)CC2)C1 (stereo partly drawn) [Example 2, 7-[3-(1,1-Dioxo-1-thiomorpholin-4-ylmethyl)-cyclobutyl]-5-{2-fluoro-5-[(S)-1-(tetrahydro-furan-2-yl)methoxy]-phenyl}-7H-pyrrolo[2,3-d]pyrimidin-4-ylamine]
16 | Nc1ncnc2c1c(-c1cccc(OC[C@H]3CCCO3)c1F)cn2[C@H]1C[C@@H](CN2CC[S+]([O-])CC2)C1 [Example 5, 5-{2-Fluoro-3-[(R)-1-(tetrahydro-furan-2-yl)methoxy]-phenyl}-7-[cis-3-(1-oxo-thiomorpholin-4-ylmethyl)-cyclobutyl]-7H-pyrrolo[2,3-d]pyrimidin-4-ylamine]
16 | CC(=O)N1CCN([C@H]2C[C@@H](n3cc(-c4cccc(OC[C@@H]5CCCO5)c4F)c4c(N)ncnc43)C2)CC1 [Example 9, 1-{4-[cis-3-(4-Amino-5-{2-fluoro-3-[(S)-1-(tetrahydro-furan-2-yl)methoxy]-phenyl}-pyrrolo[2,3-d]pyrimidin-7-yl)-cyclobutyl]-piperazin-1-yl}-ethanone]
25 | Nc1ncnc2c1c(-c1cccc(OC[C@@H]3CCCO3)c1F)cn2[C@H]1C[C@@H](N2CC[S+]([O-])CC2)C1 [Example 12, 5-{2-Fluoro-3-[(S)-1-(tetrahydro-furan-2-yl)methoxy]-phenyl}-7-[cis-3-(1-oxo-thiomorpholin-4-yl)-cyclobutyl]-7H-pyrrolo[2,3-d]pyrimidin-4-ylamine]
42 | Nc1ncnc2c1c(-c1cccc(OC[C@H]3CCCO3)c1F)cn2[C@H]1C[C@@H](N2CC[S+]([O-])CC2)C1 [Example 13, 5-{2-Fluoro-3-[(R)-1-(tetrahydro-furan-2-yl)methoxy]-phenyl}-7-[cis-3-(1-oxo-thiomorpholin-4-yl)-cyclobutyl]-7H-pyrrolo[2,3-d]pyrimidin-4-ylamine]
52 | Nc1ncnc2c1c(-c1cc(OC[C@@H]3CCCO3)ccc1F)cn2C1CC2(CNC(=O)O2)C1 (stereo partly drawn) [Example 14, 2-(4-Amino-5-{2-fluoro-5-[(S)-1-(tetrahydro-furan-2-yl)methoxy]-phenyl}-pyrrolo[2,3-d]pyrimidin-7-yl)-5-oxa-7-aza-spiro[3.4]octan-6-one]
10 | [2H]C1([2H])C([2H])([2H])C2(COc3ccc(F)c(-c4cn([C@H]5C[C@@H](N6CC[S+]([O-])CC6)C5)c5ncnc(N)c45)c3)OC1([2H])C([2H])([2H])C2([2H])[2H] [Example 15, d9-5-[2-Fluoro-5-(7-oxa-bicyclo[2.2.1]hept-1-ylmethoxy)-phenyl]-7-[cis-3-(1-oxo-thiomorpholin-4-yl)-cyclobutyl]-7H-pyrrolo[2,3-d]pyrimidin-4-ylamine]
159 | CC(=O)N1CCN([C@H]2C[C@@H](n3cc(-c4cc(OC[C@H]5CCCO5)ccc4F)c4c(N)ncnc43)C2)CC1 [Example 25, 1-{4-[cis-3-(4-Amino-5-{2-fluoro-5-[(R)-1-(tetrahydro-furan-2-yl)methoxy]-phenyl}-pyrrolo[2,3-d]pyrimidin-7-yl)-cyclobutyl]-piperazin-1-yl}-ethanone]
13 | CC(=O)N1CCN([C@H]2C[C@@H](n3cc(-c4cc(OC[C@@H]5CCCO5)ccc4F)c4c(N)ncnc43)C2)CC1 [Example 35, 1-{4-[cis-3-(4-Amino-5-{2-fluoro-5-[(S)-1-(tetrahydro-furan-2-yl)methoxy]-phenyl}-pyrrolo[2,3-d]pyrimidin-7-yl)-cyclobutyl]-piperazin-1-yl}-ethanone]
461 | Nc1ncnc2c1c(-c1ccc(F)c(OCC34CCC(CC3)O4)c1)cn2[C@H]1C[C@@](O)(CO)C1 [Example 45, (E)-3-(5-(4-fluoro-3-(7-oxabicyclo[2.2.1]heptan-1-ylmethoxy)phenyl)-4-amino-7H-pyrrolo[2,3-d]pyrimidin-7-yl)-1-(hydroxymethyl)cyclobutanol]
16 to 98 | Nc1ncnc2c1c(-c1ccc(F)c(OCC34CCC(CC3)O4)c1)cn2[C@H]1C[C@@H](CN2C[C@@H]3CC2C[S@+]3[O-])C1 [Example 48, 5-[4-Fluoro-3-(7-oxa-bicyclo[2.2.1]hept-1-ylmethoxy)-phenyl]-7-[cis-3-((S,S)-2-oxo-2λ4-thia-5-aza-bicyclo[2.2.1]hept-5-ylmethyl)-cyclobutyl]-7H-pyrrolo[2,3-d]pyrimidin-4-ylamine]
22 | Nc1ncnc2c1c(-c1ccc(F)c(OCC34CCC(CC3)O4)c1)cn2[C@H]1C[C@@H](CN2C[C@@H]3C[C@H]2CS3(=O)=O)C1 [Example 53, 7-[cis-3-((S,S)-2,2-Dioxo-2λ6-thia-5-aza-bicyclo[2.2.1]hept-5-ylmethyl)-cyclobutyl]-5-[4-fluoro-3-(7-oxa-bicyclo[2.2.1]hept-1-ylmethoxy)-phenyl]-7H-pyrrolo[2,3-d]pyrimidin-4-ylamine]
